# According to ChEMBL document CHEMBL1138923, “Structure-activity relationships of 1,5-biaryl pyrroles as EP1 receptor antagonists” (Bioorg Med Chem Lett, 2006):
# Legend:
# [1] = molecular target: T1, Prostaglandin E2 receptor EP1 subtype (Homo sapiens, UniProt P34995); test: Inhibition of [3H]PGE2 binding to EP1 receptor expressed in CHO cells; type: cell-based
# T1 sequence (P34995 whole entry): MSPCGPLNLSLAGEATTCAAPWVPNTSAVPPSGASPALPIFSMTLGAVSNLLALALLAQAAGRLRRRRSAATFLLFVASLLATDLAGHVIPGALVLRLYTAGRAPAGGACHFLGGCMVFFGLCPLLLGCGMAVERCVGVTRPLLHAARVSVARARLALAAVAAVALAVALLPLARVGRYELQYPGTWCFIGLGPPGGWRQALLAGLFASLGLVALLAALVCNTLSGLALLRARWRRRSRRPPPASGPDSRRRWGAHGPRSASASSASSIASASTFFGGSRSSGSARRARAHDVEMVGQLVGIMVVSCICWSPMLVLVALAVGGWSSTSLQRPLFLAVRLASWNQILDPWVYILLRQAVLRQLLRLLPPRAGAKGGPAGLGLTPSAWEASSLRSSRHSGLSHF
# Cytochrome P450 (family) = Cytochrome P450 (family) (Homo sapiens, UniProt P04798+P05177+P05181+P08684+P10632+P10635+P11509+P11712+P13584+P20813+P20815+P20853+P24462+P24903+P33260+P33261+P51589+P78329+P98187+Q02928+Q08477+Q16678+Q16696+Q5TCH4+Q6VVX0+Q7Z449+Q8TAV3+Q96SQ9+Q9HB55); test: Inhibition of CYP450; type: ADME
# Cytochrome P450 2C9 = Cytochrome P450 2C9 (Homo sapiens, UniProt P11712); test: Inhibition of CYP450 2C9; type: ADME
# Cytochrome P450 2C9, sequence (P11712 whole entry): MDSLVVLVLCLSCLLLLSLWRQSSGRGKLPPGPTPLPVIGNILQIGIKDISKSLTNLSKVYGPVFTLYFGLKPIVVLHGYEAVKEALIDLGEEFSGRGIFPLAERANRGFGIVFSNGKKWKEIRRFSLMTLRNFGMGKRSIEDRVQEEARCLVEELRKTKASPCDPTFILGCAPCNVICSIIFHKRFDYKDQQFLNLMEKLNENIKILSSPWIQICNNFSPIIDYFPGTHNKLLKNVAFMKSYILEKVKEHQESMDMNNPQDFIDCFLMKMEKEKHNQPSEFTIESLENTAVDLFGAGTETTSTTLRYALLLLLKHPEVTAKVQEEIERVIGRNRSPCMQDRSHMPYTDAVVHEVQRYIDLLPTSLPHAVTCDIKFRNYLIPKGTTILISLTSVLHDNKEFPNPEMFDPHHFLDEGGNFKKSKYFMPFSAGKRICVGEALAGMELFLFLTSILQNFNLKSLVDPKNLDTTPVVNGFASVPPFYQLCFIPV
# [2] = Oral bioavailability in rat at 3 mg/kg, po; type: ADME, organism-based; conditions: in vivo
# Rattus norvegicus = species on record: Rattus norvegicus; test: Decrease in weight bearing of left hind paw in rat FCA model of inflammatory pain 1 hr post dose; type: functional
# [3] = Clearance in rat at 1 mg/kg, iv; type: ADME, organism-based; set-up: dose 1 mg/kg, route intravenous; conditions: in vivo
# [4] = Volume of distribution in rat at 1 mg/kg, iv; type: ADME, organism-based; set-up: dose 1 mg/kg, route intravenous; conditions: in vivo, read-out: Vss
# [5] = Half life in rat at 1 mg/kg, iv; type: ADME, organism-based; set-up: dose 1 mg/kg, route intravenous; conditions: in vivo
Compound,IC50 [1],other results
O=C(O)c1cccc(-n2c(-c3cc(Cl)ccc3OCc3ccc(F)cc3F)ccc2C(F)(F)F)c1,100 nM,
Cc1ccc(-c2cc(Br)ccc2OCc2c(F)cccc2C(F)(F)F)n1-c1cccc(C(=O)O)c1,100 nM,
Cc1ccc(-c2cc(Cl)ccc2OCc2ccc(F)cc2)n1-c1cccc(C(=O)O)c1,6.31 nM,clearance [3]: 48 mL/min/kg; Vd [4]: 0.9 L/kg
O=C(O)c1cccc(-n2c(-c3cc(Cl)ccc3OCc3ccc(F)cc3)ccc2C(F)(F)F)c1,200 nM,
Cc1c(Cl)cc(-c2cc(Cl)ccc2OCc2ccccc2)n1-c1cccc(C(=O)O)c1,> 1000 nM,
Cc1ccc(-c2cc(Br)ccc2OCc2c(F)cc(F)cc2F)n1-c1cccc(C(=O)O)c1,1.58 nM,
Cc1c(-c2ccccc2)cc(-c2cc(Cl)ccc2OCc2ccccc2)n1-c1cccc(C(=O)O)c1,> 1000 nM,
Cc1ccc(-c2cc(Br)ccc2OCc2cccc(OC(F)F)c2)n1-c1cccc(C(=O)O)c1,79.4 nM,
Cc1ccc(-c2cc(Cl)ccc2OCc2ccc(F)cc2F)n1-c1cccc(C(=O)O)c1,3.98 nM,clearance [3]: 62 mL/min/kg; Vd [4]: 0.9 L/kg
Cc1ccc(-c2ccccc2OCc2ccccc2)n1-c1cccc(C(=O)O)c1,20 nM,
Cc1ccc(-c2cc(Br)ccc2OCc2ccc(C(F)(F)F)cc2F)n1-c1cccc(C(=O)O)c1,12.6 nM,
Cc1ccc(-c2cc(C(F)(F)F)ccc2OCc2ccccc2)n1-c1cccc(C(=O)O)c1,5.01 nM,
Cc1ccc(-c2cc(S(C)(=O)=O)ccc2OCc2ccccc2)n1-c1cccc(C(=O)O)c1,25.1 nM,
Cc1ccc(-c2cc(Br)ccc2OCc2cccc(C(F)(F)F)c2)n1-c1cccc(C(=O)O)c1,251 nM,
Cc1c(Br)cc(-c2cc(Cl)ccc2OCc2ccccc2)n1-c1cccc(C(=O)O)c1,794 nM,clearance [3]: 54 mL/min/kg; Vd [4]: 1 L/kg; half-life [5]: 18 min
Cc1ccc(-c2cc(-c3ccccc3)ccc2OCc2ccccc2)n1-c1cccc(C(=O)O)c1,398 nM,
O=C(O)c1cccc(-n2c(Cl)ccc2-c2cc(Cl)ccc2OCc2ccccc2)c1,25.1 nM,
Cc1ccc(-c2cc(Br)ccc2OCc2ccc(OC(F)(F)F)cc2)n1-c1cccc(C(=O)O)c1,15.8 nM,
CCc1ccc(-c2cc(Cl)ccc2OCc2ccccc2)n1-c1cccc(C(=O)O)c1,100 nM,
CCc1ccc(-c2cc(Br)ccc2OCc2ccccc2)n1-c1cccc(C(=O)O)c1,79.4 nM,
Cc1ccc(-c2cc(-c3ccsc3)ccc2OCc2ccccc2)n1-c1cccc(C(=O)O)c1,631 nM,
Cc1ccc(-c2cc(Br)ccc2OCc2ccc(C(F)(F)F)cc2)n1-c1cccc(C(=O)O)c1,39.8 nM,

# Now from value to molecule, other results behind:
IC50 [1],Compound,other results
15.8 nM,Cc1ccc(-c2cc(Br)ccc2OCC2CCCC2)n1-c1cccc(C(=O)O)c1,
6.31 nM,Cc1ccc(-c2cc(Br)ccc2OCc2ccc(F)cc2)n1-c1cccc(C(=O)O)c1,IC50 (Cytochrome P450 (family)): ≥ 17000 nM; IC50 (Cytochrome P450 2C9): 3900 nM; bioavailability [2]: 44%; ED50 (Rattus norvegicus): 9.2 mg/kg; clearance [3]: 42 mL/min/kg; Vd [4]: 0.7 L/kg
20 nM,Cc1ccccc1COc1ccc(Br)cc1-c1ccc(C)n1-c1cccc(C(=O)O)c1,
15.8 nM,Cc1ccc(-c2cc(Br)ccc2OCc2ccc(F)cc2Cl)n1-c1cccc(C(=O)O)c1,clearance [3]: 48 mL/min/kg; Vd [4]: 0.8 L/kg; half-life [5]: 18 min
5.01 nM,Cc1ccc(-c2cc(Br)ccc2OCc2ccc(F)c(F)c2)n1-c1cccc(C(=O)O)c1,
7.94 nM,Cc1ccc(-c2cc(Br)ccc2OCc2cc(F)ccc2F)n1-c1cccc(C(=O)O)c1,
2.51 nM,Cc1ccc(COc2ccc(Br)cc2-c2ccc(C)n2-c2cccc(C(=O)O)c2)cc1,
25.1 nM,Cc1cc(COc2ccc(Br)cc2-c2ccc(C)n2-c2cccc(C(=O)O)c2)no1,
5.01 nM,Cc1ccc(-c2cc(Cl)ccc2OCC(C)C)n1-c1cccc(C(=O)O)c1,
10 nM,Cc1ccc(-c2cc(Br)ccc2OCc2cccc(Cl)c2)n1-c1cccc(C(=O)O)c1,
39.8 nM,Cc1ccc(-c2cc(Br)ccc2OCC2CCCCC2)n1-c1cccc(C(=O)O)c1,
5.01 nM,Cc1ccc(-c2cc(Br)ccc2OCc2ccc(Cl)cc2Cl)n1-c1cccc(C(=O)O)c1,
1 nM,Cc1ccc(-c2cc(Br)ccc2OCc2c(F)cccc2F)n1-c1cccc(C(=O)O)c1,
10 nM,Cc1ccc(-c2cc(Br)ccc2OCc2ccc(Cl)cc2)n1-c1cccc(C(=O)O)c1,clearance [3]: 51 mL/min/kg; Vd [4]: 0.8 L/kg; half-life [5]: 12 min
3.16 nM,Cc1ccc(-c2cc(Br)ccc2OCc2ccccc2F)n1-c1cccc(C(=O)O)c1,
200 nM,Cc1noc(C)c1COc1ccc(Br)cc1-c1ccc(C)n1-c1cccc(C(=O)O)c1,
39.8 nM,Cc1ccc(-c2cc(Cl)ccc2OCC2CCOCC2)n1-c1cccc(C(=O)O)c1,
50.1 nM,COc1ccc(COc2ccc(Br)cc2-c2ccc(C)n2-c2cccc(C(=O)O)c2)cc1,
50.1 nM,COc1cccc(COc2ccc(Br)cc2-c2ccc(C)n2-c2cccc(C(=O)O)c2)c1,
126 nM,Cc1ccc(-c2cc(Cl)ccc2OCC2CCCCC2)n1-c1cccc(C(=O)O)c1,clearance [3]: 28 mL/min/kg; Vd [4]: 0.5 L/kg; half-life [5]: 24 min
39.8 nM,Cc1ccc(-c2cc(Cl)ccc2OCC2CCCO2)n1-c1cccc(C(=O)O)c1 (configuration not stated),
5.01 nM,Cc1ccc(-c2cc(Br)ccc2OCC(C)C)n1-c1cccc(C(=O)O)c1,
31.6 nM,Cc1ccc(-c2cc(C(F)(F)F)ccc2OCC2CCCCC2)n1-c1cccc(C(=O)O)c1,
100 nM,Cc1ccc(-c2cc(Br)ccc2OCc2ccc(Cl)c(Cl)c2)n1-c1cccc(C(=O)O)c1,
6.31 nM,Cc1ccc(-c2cc(Br)ccc2OCc2cccc(F)c2F)n1-c1cccc(C(=O)O)c1,
12.6 nM,Cc1ccc(-c2cc(Br)ccc2OCc2c(F)cccc2Cl)n1-c1cccc(C(=O)O)c1,
12.6 nM,Cc1ccc(-c2cc(Br)ccc2OCc2ccccc2Cl)n1-c1cccc(C(=O)O)c1,
25.1 nM,Cc1ccc(-c2cc(Cl)ccc2OCC2CCCC2)n1-c1cccc(C(=O)O)c1,
